Measured values taken from patent EP4763839A1 (Pamplona Therapeutics (Shenzhen) Co., Ltd., priority 2023, dated 2025).
Where a name gives a salt, the structure may show the parent alone.

Biological target: T1, IRAK4 (Homo sapiens, UniProt Q9NWZ3)
T1 sequence (Q9NWZ3 1-460): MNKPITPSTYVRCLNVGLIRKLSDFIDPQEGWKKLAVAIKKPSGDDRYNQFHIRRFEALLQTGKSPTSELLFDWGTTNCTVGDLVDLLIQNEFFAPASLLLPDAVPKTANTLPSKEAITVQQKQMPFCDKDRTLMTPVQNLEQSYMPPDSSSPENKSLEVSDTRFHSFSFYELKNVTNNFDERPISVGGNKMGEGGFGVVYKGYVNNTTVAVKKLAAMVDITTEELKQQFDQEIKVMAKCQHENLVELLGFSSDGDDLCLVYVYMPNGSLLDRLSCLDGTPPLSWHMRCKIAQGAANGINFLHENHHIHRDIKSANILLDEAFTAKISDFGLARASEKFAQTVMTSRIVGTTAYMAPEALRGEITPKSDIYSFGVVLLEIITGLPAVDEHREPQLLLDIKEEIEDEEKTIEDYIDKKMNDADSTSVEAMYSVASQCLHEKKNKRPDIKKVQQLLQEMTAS
Assay: Degradation of IRAK4 in THP1 cells, Western blot
Assay type: cell-based
Set-up: Degradation of IRAK4 in THP1 by compound; host or cells: THP-1
Settings: THP-1 cells, 24 hours of incubation; for DC50: IRAK4 protein by Western blot, read-out: DC50; for Dmax: maximum degradation rate, read-out: Dmax
Procedure: After 24 hours of incubation, the cells were collected into 1.5 mL centrifuge tubes and centrifuged at 1,000 rpm for 5 minutes. […] The supernatants were collected, and the IRAK4 protein levels were respectively detected by Western blot (WB). The total protein concentration in the cell lysate supernatant was determined using a BCA protein quantification kit (NCM). Based on the total protein concentration detected by BCA, the samples were adjusted to 2 μg/μL using cell lysis buffer and 5×SDS-PAGE protein loading buffer (Beyotime), heated at 95°C for 5 minutes in a metal bath, and then placed on ice for an ice bath for 5 minutes before being used as the loading samples for Western blot analysis. Protein electrophoresis was performed using a 10% SDS-PAGE gel with a loading volume of 20 μL (total protein 40 μg) and Tris-SDS electrophoresis at a constant voltage of 80 V. After electrophoresis, the proteins on the gel were transferred to a 0.2 μm PVDF membrane (Immobilon) using a semi-dry transfer method at 0.5 A and 20 V for 60 minutes. After transfer, the membrane was placed in 5% skimmed milk and incubated at rt for 2 hours. After blocking, the PVDF membrane was incubated with primary antibody against IRAK4 (Abcam) at 4°C overnight. […] The color development and protein band imaging were performed using a chemiluminescence imaging system ([…] Technology Co., Ltd.). The protein bands were analyzed for grayscale values using Image J analysis software. The corrected grayscale values for each sample were calculated and then compared with those of the control group treated with DMSO alone to calculate the degradation rate.

SMILES | DC50 [nM] | Dmax [%]
Cn1c(=O)n(C2CCC(=O)NC2=O)c2cccc(C#CCOC3CN(Cc4ccc(-n5cc(NC(=O)c6cccc(-c7ccn[nH]7)n6)c(S(N)(=O)=O)n5)cc4)C3)c21 (stereo not drawn) [Compound A351, N-(1-(4-((3-((3-(1-(2,6-dioxopiperidin-3-yl)-3-methyl-2-oxo-2,3-dihydro-1H-benzo[d]imidazol-4-yl)prop-2-yn-1-yl)oxy)azetidin-1-yl)methyl)phenyl)-3-sulfamoyl-1H-pyrazol-4-yl)-6-(1H-pyrazol-5-yl)picolinamide] | 100 to 1000 | 40 to 60
Cn1c(=O)n(C2CCC(=O)NC2=O)c2cccc(N3CCC(N4CCN(Cc5ccc(-n6cc(NC(=O)c7cccc(-c8ccn[nH]8)n7)c(S(N)(=O)=O)n6)cc5)CC4)CC3)c21 (stereo not drawn) [Compound A352] | < 100 | > 60
N#Cc1ccc(C(=O)Nc2cn(-c3ccc(N4CCN(CC5CCN(c6ccc(NC7CCC(=O)NC7=O)cc6F)CC5)CC4)cc3)nc2C(N)=O)nc1 (stereo not drawn) [Compound A353, N-(3-Carbamoyl-1-(4-(4-((1-(4-((2,6-dioxopiperidin-3-yl)amino)-2-fluorophenyl)piperidin-4-yl)methyl)piperazin-1-yl)phenyl)-1H-pyrazol-4-yl)-5-cyanopicolinamide] | > 1000 | < 40
NC(=O)c1nn(-c2ccc(N3CCN(CC4CCN(c5ccc(NC6CCC(=O)NC6=O)cc5F)C4)CC3)cc2)cc1NC(=O)c1cccc(C(F)(F)F)n1 (stereo not drawn) [Compound A361, N-(3-Carbamoyl-1-(4-(4-((1-(4-((2,6-dioxopiperidin-3-yl)amino)-2-fluorophenyl)pyrrolidin-3-yl)methyl)piperazin-1-yl)phenyl)-1H-pyrazol-4-yl)-6-(trifluoromethyl)picolinamide formate] | 100 to 1000 | 40 to 60
Cn1c(=O)n(C2CCC(=O)NC2=O)c2cccc(CN3CCC(N4CCN(c5ccc(-n6cc(NC(=O)c7cccc(C(F)(F)F)n7)c(C(N)=O)n6)cc5)CC4)CC3)c21 (stereo not drawn) [Compound A372] | < 100 | > 60
Cn1c(=O)n(C2CCC(=O)NC2=O)c2cccc(N3CCC(N4CCN(Cc5ccc(-n6cc(NC(=O)c7cccc(C(F)(F)F)n7)c(C(N)=O)n6)cc5)CC4)CC3)c21 (stereo not drawn) [Compound A373, N-(3-Carbamoyl-1-(4-(4-(1-(1-(2,6-dioxopiperidin-3-yl)-3-methyl-2-oxo-2,3-dihydro-1H-benzo[d]imidazol-4-yl)piperidin-4-yl)piperazin-1-yl)methyl)phenyl)-1H-pyrazol-4-yl)-6-(trifluoromethyl)picolinamide formate] | < 100 | > 60
NC(=O)c1nn(C2CCC(N3CCN(CC4CCN(c5ccc(NC6CCC(=O)NC6=O)cc5F)CC4)CC3)CC2)cc1NC(=O)c1cccc(C(F)(F)F)n1 (stereo not drawn) [Compound A374] | < 100 | > 60
NC(=O)c1nn(-c2ccc(N3CCN(CC4CCN(c5ccc(OC6CCC(=O)NC6=O)cn5)CC4)CC3)cc2)cc1NC(=O)c1cccc(C(F)(F)F)n1 (stereo not drawn) [Compound A377, N-(3-Carbamoyl-1-(4-(4-((1-(5-((2,6-dioxopiperidin-3-yl)oxy)pyridin-2-yl)piperidin-4-yl)methyl)piperazin-1-yl)phenyl)-1H-pyrazol-4-yl)-6-(trifluoromethyl)picolinamide] | < 100 | > 60

Now from value to compound:

DC50 [nM] | Dmax [%] | SMILES
< 100 | > 60 | Cn1c(=O)n(C2CCC(=O)NC2=O)c2cccc(NCC3CC4(C3)CN(C(=O)c3ccc(-n5cc(NC(=O)c6cccc(-c7ccn[nH]7)n6)c(S(N)(=O)=O)n5)cc3)C4)c21 (stereo not drawn) [Compound A354, N-(1-(4-(6-(((1-(2,6-Dioxopiperidin-3-yl)-3-methyl-2-oxo-2,3-dihydro-1H-benzo[d]imidazol-4-yl)amino)methyl)-2-azaspiro[3.3]heptane-2-carbonyl)phenyl)-3-sulfamoyl-1H-pyrazol-4-yl)-6-(1H-pyrazol-5-yl)picolinamide]
< 100 | > 60 | NC(=O)c1nn(-c2ccc(N3CCN(C(=O)N4CCC(c5ccc(OC6CCC(=O)NC6=O)cc5F)CC4)CC3)cc2)cc1NC(=O)c1cccc(C(F)(F)F)n1 (stereo not drawn) [Compound A355, N-(3-Carbamoyl-1-(4-(4-(4-(4-((2,6-dioxopiperidin-3-yl)oxy)-2-fluorophenyl)piperidine-1-carbonyl)piperazin-1-yl)phenyl)-1H-pyrazol-4-yl)-6-(trifluoromethyl)picolinamide]
< 100 | > 60 | Cn1c(=O)n(C2CCC(=O)NC2=O)c2cccc(NCCN3CCN(C(=O)c4ccc(-n5cc(NC(=O)c6cccc(-c7ccn[nH]7)n6)c(S(N)(=O)=O)n5)cc4)CC3)c21 (stereo not drawn) [Compound A356, N-(1-(4-(4-(2-((1-(2,6-Dioxopiperidin-3-yl)-3-methyl-2-oxo-2,3-dihydro-1H-benzo[d]imidazol-4-yl)amino)ethyl)piperazine-1-carbonyl)phenyl)-3-sulfamoyl-1H-pyrazol-4-yl)-6-(1H-pyrazol-5-yl)picolinamide]
< 100 | > 60 | Cn1c(=O)n(C2CCC(=O)NC2=O)c2cccc(C(=O)N3CCC4(CCN(Cc5ccc(-n6cc(NC(=O)c7cccc(-c8ccn[nH]8)n7)c(S(N)(=O)=O)n6)cc5)C4)CC3)c21 (stereo not drawn) [Compound A357, N-(1-(4-((8-(1-(2,6-Dioxopiperidin-3-yl)-3-methyl-2-oxo-2,3-dihydro-1H-benzo[d]imidazole-4-carbonyl)-2,8-diazaspiro[4.5]decan-2-yl)methyl)phenyl)-3-sulfamoyl-1H-pyrazol-4-yl)-6-(1H-pyrazol-5-yl)picolinamide]
< 100 | > 60 | NC(=O)c1nn(-c2ccc(N3CCN(C4CCN(c5ccc(NC6CCC(=O)NC6=O)cc5F)CC4)CC3)cc2)cc1NC(=O)c1cccc(C(F)(F)F)n1 (stereo not drawn) [Compound A365, 1-{4-[4-(1-{4-[(2,6-dioxopiperidin-3-yl)amino]-2-fluorophenyl}piperidin-4-yl)piperazin-1-yl]phenyl}-4-({[6-(trifluoromethyl)pyridin-2-yl]carbonyl}amino)pyrazole-3-carboxamide]
< 100 | > 60 | Cn1c(=O)n(C2CCC(=O)NC2=O)c2cccc(N3CCC(C(=O)N4CCN(c5ccc(-n6cc(NC(=O)c7cccc(C(F)(F)F)n7)c(C(N)=O)n6)cc5)CC4)CC3)c21 (stereo not drawn) [Compound A368, N-(3-Carbamoyl-1-(4-(4-(1-(1-(2,6-dioxopiperidin-3-yl)-3-methyl-2-oxo-2,3-dihydro-1H-benzo[d]imidazol-4-yl)piperidine-4-carbonyl)piperazin-1-yl)phenyl)-1H-pyrazol-4-yl)-6-(trifluoromethyl)picolinamide]
< 100 | > 60 | Cn1c(=O)n(C2CCC(=O)NC2=O)c2cccc(N3CCC(CN4CCN(c5ccc(-n6cc(NC(=O)c7cccc(C(F)(F)F)n7)c(C(=O)NC7CC7)n6)cc5)CC4)CC3)c21 (stereo not drawn) [Compound A369, N-{3-[(cyclopropylamino)carbonyl]-1-{4-[4-({1-[1-(2,6-dioxopiperidin-3-yl)-3-methyl-2-oxobenzo[d]imidazol-4-yl]piperidin-4-yl}methyl)piperazin-1-yl]phenyl}pyrazol-4-yl}-6-(trifluoromethyl)pyridine-2-carboxamide formate]
